What was measured:
[1] = test system: CYP450 enzymes; experiment: CYP inhibition test, overall statement on the eight CYP450 enzymes; type: in vitro ADME; details: all the eight CYP450 enzymes
Description: (§1) The compound was dissolved in DMSO to prepare a 10 mM stock solution. The stock solution was further diluted into a series of working solutions of 5, 1.5, 0.5, 0.15, 0.05, 0.015 and 0.005 mM with a mixed solvent of DMSO:methanol=1:1.
(§2) The substrates were each dissolved in DMSO to prepare stock solutions of the corresponding concentrations.
(§3) The positive controls were each dissolved in DMSO to prepare stock solutions of the corresponding concentrations. They were then diluted with methanol to the corresponding concentrations of working solutions.
(§4) The protein concentration of liver microsomes in the reaction system was 0.2 mg/mL, and the coenzyme NADPH was 1.0 mM. The incubation was carried out in a water bath at 37° C. The reaction was quenched and subjected to conventional procedures for LC-MS/MS analysis.
The risk of drug interaction is little, and thus higher safety exists. Other compounds of the invention all have similar safety.

[2] = test system: hepatitis B virus (HBV); experiment: In vitro pharmacological test: HBV DNA replication in HepG2.2.15 cells; type: cell-based
Description: The inhibitory effect of the compounds of the invention on hepatitis B virus (HBV) was tested. The cytotoxicity of the compounds of the invention and the effect thereof on viral (HBV) nucleic acid (DNA) replication levels were tested at cellular level.
HepG2.2.15 cells in logarithmic growth phase were seeded in a 96-well plate at a cell concentration of 40 cells/μL, and were incubate for 3 days at 37° C. in a 5% CO2 incubator. The medium was replaced with new medium (200 μL/well) before adding the compound. The concentration of each compound of the examples in the stock solutions was 200 μM. The highest concentration was 200 μM, and dilution with DMSO lead to a number of different concentrations. 1 μL of the test compound was placed in the corresponding medium well, and the final test concentrations of the compounds were 0.06, 0.24, 0.98, 3.9, 15.6, 62.5, 250, 1000 nM (for calculating the medium effective concentration (EC50)).

[3] = biological target: T1, CYP2C9 (Homo sapiens, UniProt P11712); experiment: CYP inhibition test, liver microsome incubation; type: in vitro ADME; details: liver microsomes, probe diclofenac
T1 construct: The protein concentration of liver microsomes in the reaction system was 0.2 mg/mL; from tissue; host or cells: liver microsomes
Description: as §1, §2, §3, §4

[4] = biological target: T2, CYP3A4 (Homo sapiens, UniProt P08684); experiment: CYP inhibition test, liver microsome incubation; type: in vitro ADME; details: liver microsomes
T2 construct: The protein concentration of liver microsomes in the reaction system was 0.2 mg/mL; from tissue; host or cells: liver microsomes
Description: as §1, §2, §3, §4

[5] = biological target: T3, CYP2B6 (Homo sapiens, UniProt P20813); experiment: CYP inhibition test, liver microsome incubation; type: in vitro ADME; details: liver microsomes, probe bupropion
T3 construct: The protein concentration of liver microsomes in the reaction system was 0.2 mg/mL; from tissue; host or cells: liver microsomes
T3 sequence (P20813 1-491): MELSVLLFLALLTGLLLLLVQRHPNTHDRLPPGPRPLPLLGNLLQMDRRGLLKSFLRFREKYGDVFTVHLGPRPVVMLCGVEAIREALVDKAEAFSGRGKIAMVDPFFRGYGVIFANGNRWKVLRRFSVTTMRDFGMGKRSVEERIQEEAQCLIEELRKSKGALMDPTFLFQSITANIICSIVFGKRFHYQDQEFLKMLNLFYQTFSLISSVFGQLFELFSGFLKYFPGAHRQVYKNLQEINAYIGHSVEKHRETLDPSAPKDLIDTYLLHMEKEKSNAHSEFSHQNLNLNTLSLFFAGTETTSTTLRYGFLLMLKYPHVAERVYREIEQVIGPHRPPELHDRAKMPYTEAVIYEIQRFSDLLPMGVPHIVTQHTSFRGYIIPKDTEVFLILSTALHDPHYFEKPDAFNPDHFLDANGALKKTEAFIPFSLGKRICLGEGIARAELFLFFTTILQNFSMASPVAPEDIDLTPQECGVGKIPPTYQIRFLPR
Description: as §1, §2, §3, §4

[6] = biological target: T4, CYP2D6 (Homo sapiens, UniProt P10635); experiment: CYP inhibition test, liver microsome incubation; type: in vitro ADME; details: liver microsomes, probe dextromethorphan
T4 construct: from tissue; host or cells: liver microsomes
Description: as §1, §2, §3, §4

[7] = biological target: T5, CYP2C8 (Homo sapiens, UniProt P10632); experiment: CYP inhibition test, liver microsome incubation; type: in vitro ADME; details: liver microsomes, probe amodiaquine
T5 construct: from tissue; host or cells: liver microsomes
T5 sequence (P10632 1-490): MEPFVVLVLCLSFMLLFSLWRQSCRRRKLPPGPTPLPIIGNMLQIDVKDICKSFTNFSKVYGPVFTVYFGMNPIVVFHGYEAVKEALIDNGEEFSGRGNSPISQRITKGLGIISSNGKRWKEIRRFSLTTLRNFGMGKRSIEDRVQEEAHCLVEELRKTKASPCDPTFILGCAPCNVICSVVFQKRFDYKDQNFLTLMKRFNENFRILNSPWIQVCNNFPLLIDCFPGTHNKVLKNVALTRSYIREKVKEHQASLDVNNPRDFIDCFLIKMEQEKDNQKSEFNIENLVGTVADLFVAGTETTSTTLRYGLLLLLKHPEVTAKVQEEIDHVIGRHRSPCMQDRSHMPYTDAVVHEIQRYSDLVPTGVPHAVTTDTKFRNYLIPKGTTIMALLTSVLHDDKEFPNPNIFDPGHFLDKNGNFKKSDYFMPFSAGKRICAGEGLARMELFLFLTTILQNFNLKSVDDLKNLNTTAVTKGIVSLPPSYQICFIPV
Description: as §1, §2, §3, §4

[8] = biological target: T6, CYP1A2 (Homo sapiens, UniProt P05177); experiment: CYP inhibition test, liver microsome incubation; type: in vitro ADME; details: liver microsomes, probe phenacetin
T6 construct: from tissue; host or cells: liver microsomes
T6 sequence (P05177 1-516): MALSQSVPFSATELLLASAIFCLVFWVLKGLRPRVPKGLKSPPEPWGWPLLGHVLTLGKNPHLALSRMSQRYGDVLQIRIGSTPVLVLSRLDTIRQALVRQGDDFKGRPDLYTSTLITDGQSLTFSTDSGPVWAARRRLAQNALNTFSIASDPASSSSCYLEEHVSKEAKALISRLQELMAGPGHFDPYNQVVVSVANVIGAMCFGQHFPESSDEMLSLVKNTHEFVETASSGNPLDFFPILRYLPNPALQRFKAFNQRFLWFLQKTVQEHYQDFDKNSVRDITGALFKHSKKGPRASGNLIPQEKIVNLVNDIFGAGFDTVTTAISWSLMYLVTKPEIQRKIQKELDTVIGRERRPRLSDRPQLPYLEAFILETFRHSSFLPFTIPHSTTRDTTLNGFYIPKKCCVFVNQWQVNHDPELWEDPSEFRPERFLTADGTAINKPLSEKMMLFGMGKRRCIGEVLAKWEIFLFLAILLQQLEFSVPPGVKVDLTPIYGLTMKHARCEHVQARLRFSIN
Description: as §1, §2, §3, §4

[9] = biological target: T7, CYP2C19 (Homo sapiens, UniProt P33261); experiment: CYP inhibition test, liver microsome incubation; type: in vitro ADME; details: liver microsomes, probe methoin
T7 construct: The protein concentration of liver microsomes in the reaction system was 0.2 mg/mL; from tissue; host or cells: liver microsomes
Description: as §1, §2, §3, §4

[10] = male, ICR, mouse, in vivo, po, 10 mg/kg

T2 sequence (P08684 whole entry): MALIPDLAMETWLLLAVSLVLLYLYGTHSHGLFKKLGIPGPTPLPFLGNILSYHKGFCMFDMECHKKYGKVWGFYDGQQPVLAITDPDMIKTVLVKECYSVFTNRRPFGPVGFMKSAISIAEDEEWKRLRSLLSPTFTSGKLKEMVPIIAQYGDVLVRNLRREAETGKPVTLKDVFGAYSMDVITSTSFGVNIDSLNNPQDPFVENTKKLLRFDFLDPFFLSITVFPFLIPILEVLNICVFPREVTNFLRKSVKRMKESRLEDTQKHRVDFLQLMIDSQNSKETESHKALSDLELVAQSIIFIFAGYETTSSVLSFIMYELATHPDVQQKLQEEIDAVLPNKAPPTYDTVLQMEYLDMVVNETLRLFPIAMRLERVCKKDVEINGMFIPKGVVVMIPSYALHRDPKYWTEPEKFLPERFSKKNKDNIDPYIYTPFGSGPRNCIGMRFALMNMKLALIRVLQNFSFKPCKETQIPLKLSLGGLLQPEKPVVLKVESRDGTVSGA
T7 sequence (P33261 whole entry): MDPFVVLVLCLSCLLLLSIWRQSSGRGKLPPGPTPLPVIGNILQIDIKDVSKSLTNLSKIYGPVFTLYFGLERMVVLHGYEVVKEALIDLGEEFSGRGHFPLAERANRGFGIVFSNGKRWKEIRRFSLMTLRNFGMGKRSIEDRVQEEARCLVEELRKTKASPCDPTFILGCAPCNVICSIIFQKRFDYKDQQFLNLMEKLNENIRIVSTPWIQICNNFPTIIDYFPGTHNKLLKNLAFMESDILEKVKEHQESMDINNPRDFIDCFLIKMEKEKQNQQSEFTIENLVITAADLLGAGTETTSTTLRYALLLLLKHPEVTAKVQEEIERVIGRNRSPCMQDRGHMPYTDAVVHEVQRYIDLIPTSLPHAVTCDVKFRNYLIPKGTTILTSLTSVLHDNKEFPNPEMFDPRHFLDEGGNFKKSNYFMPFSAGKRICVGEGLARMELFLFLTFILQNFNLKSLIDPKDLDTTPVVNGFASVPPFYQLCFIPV
T1 sequence (P11712 whole entry): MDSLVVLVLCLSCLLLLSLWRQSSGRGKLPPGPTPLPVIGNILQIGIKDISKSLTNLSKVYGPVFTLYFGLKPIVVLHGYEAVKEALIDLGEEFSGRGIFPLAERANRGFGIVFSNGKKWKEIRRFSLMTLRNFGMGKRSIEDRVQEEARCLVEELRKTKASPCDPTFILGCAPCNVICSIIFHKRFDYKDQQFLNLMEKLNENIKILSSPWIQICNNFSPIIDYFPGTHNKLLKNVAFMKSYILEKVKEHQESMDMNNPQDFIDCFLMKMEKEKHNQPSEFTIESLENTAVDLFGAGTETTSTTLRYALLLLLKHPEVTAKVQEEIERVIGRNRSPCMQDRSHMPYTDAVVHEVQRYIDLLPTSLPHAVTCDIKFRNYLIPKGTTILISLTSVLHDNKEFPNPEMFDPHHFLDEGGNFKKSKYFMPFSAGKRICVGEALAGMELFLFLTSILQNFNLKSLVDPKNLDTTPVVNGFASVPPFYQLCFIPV
T4 sequence (P10635 whole entry): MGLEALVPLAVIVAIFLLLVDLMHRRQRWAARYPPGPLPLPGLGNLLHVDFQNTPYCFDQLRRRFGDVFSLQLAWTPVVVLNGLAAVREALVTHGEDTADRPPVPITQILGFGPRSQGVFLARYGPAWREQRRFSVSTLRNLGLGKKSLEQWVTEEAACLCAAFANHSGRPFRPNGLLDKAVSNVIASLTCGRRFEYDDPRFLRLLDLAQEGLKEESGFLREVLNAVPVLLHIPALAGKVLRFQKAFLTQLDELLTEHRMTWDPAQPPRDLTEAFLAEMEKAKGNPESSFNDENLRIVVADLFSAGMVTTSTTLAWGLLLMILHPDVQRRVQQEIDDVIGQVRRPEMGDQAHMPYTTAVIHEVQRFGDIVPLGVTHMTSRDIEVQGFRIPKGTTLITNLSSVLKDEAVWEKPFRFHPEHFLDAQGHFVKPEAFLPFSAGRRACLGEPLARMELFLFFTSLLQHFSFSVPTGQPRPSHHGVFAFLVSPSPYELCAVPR

SMILES | inhibitory effect on the eight CYP450 enzymes (in words) [1] | EC50 [2] [µM] | IC50 [3] [µM] | IC50 ([4]; probe midazolam) [µM] | IC50 ([4]; probe testosterone) [µM] | IC50 [5] [µM] | IC50 [6] [µM] | IC50 [7] [µM] | IC50 [8] [µM] | IC50 [9] [µM] | concentration of Metabolite 1 in liver relative to the plasma concentration [10] [times]
C[C@H](Cn1cnc2c(N)ncnc21)OCP(=O)(NCCOCc1ccccc1)Oc1ccccc1 (mixture of isomers) [Ex. 15, ((((R)-1-(6-amino-9H-purin-9-yl)propan-2-yl)oxy)methyl)-phenoxy-N-(2-(benzyloxy)ethyl)phosphoramide] | no inhibitory effect | 0.0547 ± 0.0264 | > 50 | 11.6 | 13.3 | > 50 | > 50 | > 50 | > 50 | > 50 | 
C[C@H](Cn1cnc2c(N)ncnc21)OCP(=O)(O)O (single isomer, unassigned) [Metabolite 1 of Compound 22 - Isomer B of Example 16] |  |  |  |  |  |  |  |  |  |  | 21

— patent US10899786B2, “Nucleoside phosphate compound and preparation method and use thereof” (SICHUAN KELUN-BIOTECH BIOPHARMACEUTICAL CO., LTD., priority 2016, dated 2021)
